Test results as given in patent US20240325398A1, “COMBINATION THERAPIES” (Infinity Pharmaceuticals, Inc., priority 2014, published 2024).

Experiments:
[1] = system: Jeko-1; experiment: Combination study, ATPLite 72 h, dose matrix (Synergy Score, CI50); settings: combination with Compound 1
Method: (§1) Cells are thawed from a liquid nitrogen preserved state. Once cells have been expanded and divide at their expected doubling times, screening begins. Cells are seeded in growth media in either black 1536-well or 384-well tissue culture treated plates. Cells are then equilibrated in assay plates via centrifugation and placed in incubators attached to the Dosing Modules at 37° C. for 24 hours before treatment. […] These Tzero (To) plates are read using ultra-sensitive luminescence on Envision plate readers (Perkin Elmer). Treated assay plates are incubated with compound for 72 hours. After 72 hours, plates are developed for endpoint analysis using ATPLite. All data points are collected via automated processes, quality controlled and analyzed using Zalicus software.
(§2) where T is treated cell count and V is untreated (vehicle) cell count (at 72 hours). I ranges from 0% (when T=V) to 100% (when T=0). […] The measure of effect in the experiment can be the inhibition of cellular response relative to the untreated level (vehicle alone). […] The inhibition ranges from 0% at the untreated level to 100% when T=0. Inhibition levels are negative for agents that actually increase levels. Other effect measures, such as an activity ratio r=T/V may be more appropriate for some assays. When activity ratios (e.g, fold increase over stimulated control) are being used, the effect can be measured using an induction 1=ln(T/V). With this definition, all effect expressions are the same as for inhibition.
(§3) Growth Inhibition (GI) is used as a measure of cell viability. […] A GI reading of 100% represents complete growth inhibition—T72 compound-treated and T0 vehicle signals are matched. […] A GI reading of 200% represents complete death of all cells in the culture well. Compounds reaching an activity plateau of GI 200% are considered cytotoxic. GI is calculated by applying the following test and equation:
(§4) Combination analysis data were collected in a 6×6 dose matrix. Synergy is calculated by comparing a combination's response to those of its single compound, against the drug-with-itself dose-additive reference model. Deviations from dose additivity may be assessed visually on an isobologram or numerically with a Combination Index (CI). […] Additive effect is CI=1.0. […] Antagonistic effect is CI>1.0.
(§5) To measure combination effects in excess of Loewe additivity, a scalar measure to characterize the strength of synergistic interaction termed the Synergy Score is devised. The Synergy Score is calculated as:
(§6) The fractional inhibition for each component agent and combination point in the matrix is calculated relative to the median of all vehicle-treated control wells. The Synergy Score equation integrates the experimentally-observed activity volume at each point in the matrix in excess of a model surface numerically derived from the activity of the component agents using the Loewe model for additivity. Additional terms in the Synergy Score equation (above) are used to normalize for various dilution factors used for individual agents and to allow for comparison of synergy scores across an entire experiment. The inclusion of positive inhibition gating or an Idata multiplier removes noise near the zero effect level, and biases results for synergistic interactions at that occur at high activity levels.
(§7) Loewe Volume (Loewe Vol) is used to assess the overall magnitude of the combination interaction in excess of the Loewe additivity model. Loewe Volume is particularly useful when distinguishing synergistic increases in a phenotypic activity (positive Loewe Volume) versus synergistic antagonisms (negative Loewe Volume). […] This model defines additivity as a non-synergistic combination interaction where the combination dose matrix surface should be indistinguishable from either drug crossed with itself.

[2] = system: RPMI-8226; experiment: as above; settings: combination with Compound 1
Method: as §1, §2, §3, §4, §5, §6, §7

[3] = system: WSU-NHL; experiment: as above; settings: combination with Compound 1, 72 h
[4] = system: NCI-H929; experiment: as above; settings: combination with Compound 1
[5] = system: U-2932; experiment: as above; settings: combination with Compound 1, 72 h
[6] = system: Mino; experiment: as above; settings: combination with Compound 1
Method: as §1, §2, §3, §4, §5, §6, §7

[7] = system: OCI-Ly7; experiment: as above; settings: combination with Compound 1, 72 h
[8] = system: KARPAS-422; experiment: as above; settings: combination with Compound 1, 72 h
[9] = system: RL; experiment: as above; settings: combination with Compound 1, 72 h
Method: as §1, §2, §3, §4, §5, §6, §7

[10] = system: SU-DHL-10-epst; experiment: as above; settings: combination with Compound 1, 72 h
[11] = system: HBL-1; experiment: as above; settings: combination with Compound 1, 72 h
Method: as §1, §2, §3, §4, §5, §6
(§8) Loewe Volume (Loewe Vol) is used to assess the overall magnitude of the combination interaction in excess of the Loewe additivity model. Loewe Volume is particularly useful when distinguishing synergistic increases in a phenotypic activity (positive Loewe Volume) versus synergistic antagonisms (negative Loewe Volume). […] This model defines additivity as a non-synergistic combination interaction where the combination dose matrix surface should be indistinguishable from either drug crossed with itself. The calculation for Loewe additivity is:

[12] = system: DOHH-2; experiment: as above; settings: combination with Compound 1, 72 h
[13] = system: OCI-Ly3; experiment: as above; settings: combination with Compound 1; OCI-Ly3; 72 h
Method: as §1, §2, §3, §4, §5, §6, §8

[14] = as above; settings: combination with Compound 1; OPM-2
[15] = system: OMP-2; experiment: as above; settings: combination with Compound 1; OPM-2
[16] = system: GRANTA-519; experiment: as above; settings: combination with Compound 1
[17] = system: HH; experiment: as above; format: cell-based; settings: combination with Compound 1
Method: The method is described as follows.
Additive effect is CI=1.0. […] Antagonistic effect is CI>1.0.
The Synergy Score is calculated as: […]

[18] = system: Farage; experiment: as above; settings: combination with Compound 1; Farage; 72 h
[19] = system: SU-DHL-4-epst; experiment: as above; settings: combination with Compound 1, 72 h
Method: as §1
The measure of effect in the experiment can be the inhibition of cellular response relative to the untreated level (vehicle alone). […] The inhibition ranges from 0% at the untreated level to 100% when T=0. Inhibition levels are negative for agents that actually increase levels.
as §3, §4, §5, §6, §8

[20] = system: TMD8; experiment: as above; settings: combination with Compound 1; TMD8; 72 h
[21] = system: KARPAS-299; experiment: as above; settings: combination with Compound 1

NC1(c2ccc(-c3nc4ccn5c(=O)[nH]nc5c4cc3-c3ccccc3)cc2)CCC1 [MK-2206, 8-[4-(1-aminocyclobutyl)phenyl]-9-phenyl-2H-[1,2,4]triazolo[3,4-f][1,6]naphthyridin-3-one]
W (W=≥1): CI50 growth inhibition [6] | CI50 inhibition [7] | CI50 inhibition [11] | CI50 inhibition [13]
T (T=0.5 to <0.7): CI50 growth inhibition [4] | CI50 growth inhibition [8] | CI50 growth inhibition [11]
A1 (A1=0.0001 to <1): Synergy Score inhibition [2] | Synergy Score growth inhibition [5] | Synergy Score inhibition [5] | Synergy Score growth inhibition [6] | Synergy Score inhibition [6] | Synergy Score growth inhibition [7] | Synergy Score inhibition [7] | Synergy Score inhibition [11] | Synergy Score inhibition [13] | Synergy Score growth inhibition [16] | Synergy Score inhibition [16] | Synergy Score growth inhibition [21] | Synergy Score inhibition [21]
U (U=0.7 to <1): CI50 growth inhibition [2] | CI50 inhibition [2] | CI50 inhibition [4] | CI50 growth inhibition [5] | CI50 inhibition [5] | CI50 inhibition [6] | CI50 growth inhibition [7] | CI50 inhibition [15]
A3 (A3=>3): Synergy Score growth inhibition [3] | Synergy Score inhibition [3] | Synergy Score growth inhibition [4] | Synergy Score growth inhibition [9] | Synergy Score inhibition [9] | Synergy Score growth inhibition [10] | Synergy Score inhibition [10] | Synergy Score growth inhibition [12] | Synergy Score inhibition [12] | Synergy Score growth inhibition [15] | Synergy Score growth inhibition [17] | Synergy Score growth inhibition [18] | Synergy Score inhibition [18] | Synergy Score growth inhibition [19] | Synergy Score inhibition [19] | Synergy Score growth inhibition [20] | Synergy Score inhibition [20]
A2 (A2=1 to <3): Synergy Score growth inhibition [1] | Synergy Score inhibition [1] | Synergy Score growth inhibition [2] | Synergy Score inhibition [4] | Synergy Score growth inhibition [8] | Synergy Score inhibition [8] | Synergy Score growth inhibition [11] | Synergy Score growth inhibition [13] | Synergy Score inhibition [15] | Synergy Score inhibition [17]
S (S=0.01 to <0.5): CI50 growth inhibition [1] | CI50 inhibition [1] | CI50 growth inhibition [3] | CI50 inhibition [3] | CI50 inhibition [8] | CI50 growth inhibition [9] | CI50 inhibition [9] | CI50 growth inhibition [10] | CI50 inhibition [10] | CI50 growth inhibition [12] | CI50 inhibition [12] | CI50 growth inhibition [13] | CI50 growth inhibition [14] | CI50 growth inhibition [16] | CI50 growth inhibition [17] | CI50 inhibition [17] | CI50 growth inhibition [18] | CI50 inhibition [18] | CI50 growth inhibition [19] | CI50 inhibition [19] | CI50 growth inhibition [20] | CI50 inhibition [20]

O=C(NOC[C@H](O)CO)c1ccc(F)c(F)c1Nc1ccc(I)cc1F [PD0325901]
U (U=0.7 to <1): CI50 growth inhibition [1] | CI50 growth inhibition [2] | CI50 inhibition [4] | CI50 growth inhibition [5] | CI50 growth inhibition [14] | CI50 inhibition [17] | CI50 growth inhibition [20] | CI50 inhibition [20]
A3 (A3=>3): Synergy Score growth inhibition [3] | Synergy Score inhibition [3] | Synergy Score growth inhibition [4] | Synergy Score growth inhibition [6] | Synergy Score inhibition [6] | Synergy Score growth inhibition [10] | Synergy Score growth inhibition [15] | Synergy Score growth inhibition [16] | Synergy Score growth inhibition [20] | Synergy Score inhibition [20]
A1 (A1=0.0001 to <1): Synergy Score growth inhibition [1] | Synergy Score inhibition [1] | Synergy Score inhibition [5] | Synergy Score growth inhibition [7] | Synergy Score inhibition [7] | Synergy Score growth inhibition [9] | Synergy Score inhibition [9] | Synergy Score inhibition [11] | Synergy Score growth inhibition [12] | Synergy Score inhibition [12] | Synergy Score inhibition [13] | Synergy Score inhibition [17] | Synergy Score inhibition [18] | Synergy Score inhibition [21]
T (T=0.5 to <0.7): CI50 inhibition [8] | CI50 growth inhibition [11] | CI50 inhibition [19]
S (S=0.01 to <0.5): CI50 growth inhibition [3] | CI50 inhibition [3] | CI50 growth inhibition [4] | CI50 growth inhibition [6] | CI50 inhibition [6] | CI50 growth inhibition [8] | CI50 growth inhibition [10] | CI50 inhibition [10] | CI50 growth inhibition [13] | CI50 growth inhibition [16] | CI50 growth inhibition [19] | CI50 growth inhibition [21]
W (W=≥1): CI50 growth inhibition [12] | CI50 inhibition [12] | CI50 inhibition [15] | CI50 growth inhibition [17] | CI50 growth inhibition [18] | CI50 inhibition [18]
A2 (A2=1 to <3): Synergy Score growth inhibition [2] | Synergy Score inhibition [2] | Synergy Score inhibition [4] | Synergy Score growth inhibition [5] | Synergy Score growth inhibition [8] | Synergy Score inhibition [8] | Synergy Score inhibition [10] | Synergy Score growth inhibition [11] | Synergy Score growth inhibition [13] | Synergy Score inhibition [15] | Synergy Score inhibition [16] | Synergy Score growth inhibition [17] | Synergy Score growth inhibition [18] | Synergy Score growth inhibition [19] | Synergy Score inhibition [19] | Synergy Score growth inhibition [21]
